Data as given in patent US20250059180A1 (DONG WHA PHARM. CO., LTD., priority 2022, published 2025).
Where a name gives a salt, the structure may show the parent alone.

Tested on: Pfeiffer cells, lymphoma cells having EZH2 mutation (A677G)
Assay: Proliferation inhibition of cells of hematologic malignancies (CCK-8, 11 days)
Format: cell-based
Conditions: 11 days culture, read-out: Cell proliferation inhibitory effect (IC50)
How it was run: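 Pfeiffer lymphoma cells (EZH2 A677G) in RPMI1640 with 10% FBS were seeded at 10,000 cells/well and exposed to test material for 11 days, with compound replaced every 3–4 days. Viability was read by CCK-8 absorbance at 450 nm, and IC50 was derived by non-linear regression curve fitting.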

With CSc1cc(C)[nH]c(=O)c1CNC(=O)c1cc(-c2ccc(N3C[C@@H](C)O[C@@H](C)C3)nc2)c2c(c1C)OC(C)(C1CCN(C(C)C)CC1)O2 (single isomer, unassigned) [Compound 52] as the compound, how does the IC50 read?
The IC50 was ≥ 100 nM.

How did the IC50 turn out when CSc1cc(C)[nH]c(=O)c1CNC(=O)c1cc(-c2ccc(N3C[C@@H](C)O[C@@H](C)C3)nc2)c2c(c1C)OC(C)(C1CCN(CC(F)F)CC1)O2 (single isomer, unassigned) [Compound 47] was run?
Its IC50 is ≤ 10 nM.

For CSc1cc(C)[nH]c(=O)c1CNC(=O)c1cc(-c2ccc(N3C[C@@H](C)O[C@@H](C)C3)nc2)c2c(c1C)OC(C)(C1CCN(C3CCCCC3)CC1)O2 (single isomer, unassigned) [Compound 53], which IC50 is on record?
Its IC50 is ≤ 10 nM.

Which IC50 does the source give for CSc1cc(C)[nH]c(=O)c1CNC(=O)c1cc(-c2cnc(N3CCOCC3)nc2)c2c(c1C)OC(C)(C1CCN(CC(F)(F)F)CC1)O2 (stereo not shown) [Compound 70, 2,4-dimethyl-N-((6-methyl-4-(methylthio)-2-oxo-1,2-dihydropyridin-3-yl)methyl)-7-(2-morpholinopyrimidin-5-yl)-2-(1-(2,2,2-trifluoro)piperidin-4-yl)benzo[d][1,3]dioxole-5-carboxamide] here?
The IC50 was ≥ 100 nM.

With CSc1cc(C)[nH]c(=O)c1CNC(=O)c1cc(-c2cnc(N3C[C@@H](C)O[C@@H](C)C3)nc2)c2c(c1C)OC(C)([C@H]1CC[C@H](N(C)CC(F)(F)F)CC1)O2 (stereo partly drawn) [Compound 23, 7-(2-((2S,6R)-2,6-dimethylmorpholino)pyrimidin-5-yl)-2,4-dimethyl-2-(trans-4-(methyl(2,2,2-trifluoroethyl)amino)cyclohexyl)-N-((6-methyl-4-(methylthio)-2-oxo-1,2-dihydropyridin-3-yl)methyl)benzo[d][1,3]dioxole-5-carboxamide] as the compound, how does the IC50 read?
Its IC50 is ≤ 10 nM.

CSc1cc(C)[nH]c(=O)c1CNC(=O)c1cc(-c2ccc(N3C[C@@H](C)O[C@@H](C)C3)nc2)c2c(c1C)OC(C)(C1CCN(CCCC(F)(F)F)CC1)O2 (single isomer, unassigned) [Compound 57] was tested. Which IC50 did it give?
The IC50 was ≤ 10 nM.

With CSc1cc(C)[nH]c(=O)c1CNC(=O)c1cc(-c2ccc(N3C[C@@H](C)O[C@@H](C)C3)nc2)c2c(c1C)OC(C)(C1CCN(C(=O)C(F)(F)F)CC1)O2 (single isomer, unassigned) [Compound 59] as the compound, how does the IC50 read?
Its IC50 is ≤ 10 nM.

Same assay, conditions: Homo sapiens, Pfeiffer, 264 h, 11 days culture, read-out: Cell proliferation inhibitory effect (IC50)

Which IC50 does the source give for CCN(C)c1ccc(-c2cc(C(=O)NCc3c(SC)cc(C)[nH]c3=O)c(C)c3c2OC(C)(C2CCN(CC(F)(F)F)CC2)O3)cn1 (single isomer, unassigned) [Compound 86, 7-(6-(ethyl(methyl)amino)pyridin-3-yl)-2,4-dimethyl-N-((6-methyl-4-(methylthio)-2-oxo-1,2-dihydropyridin-3-yl)methyl)-2-(1-(2,2,2-trifluoroethyl)piperidin-4-yl)benzo[d][1,3]dioxole-5-carboxamide] here?
The IC50 was ≤ 10 nM.

With CSc1cc(C)[nH]c(=O)c1CNC(=O)c1cc(-c2ccc3c(c2)OC(F)(F)O3)c2c(c1C)OC(C)(C1CCN(CC(F)(F)F)CC1)O2 (stereo not shown) [Compound 93, 2′,2′-difluoro-2,7-dimethyl-N-((6-methyl-4-(methylthio)-2-oxo-1,2-dihydropyridin-3-yl)methyl)-2-(1-(2,2,2-trifluoroethyl)piperidin-4-yl)-[4,5′-bibenzo[d][1,3]dioxol]-6-carboxamide] as the compound, how does the IC50 read?
Its IC50 is ≥ 100 nM.

CSc1cc(C)[nH]c(=O)c1CNC(=O)c1cc(-c2cnc(N3CCCCC3)nc2)c2c(c1C)OC(C)([C@H]1CC[C@H](N(C)C)CC1)O2 (stereo partly drawn) [Compound 4, 2-(trans-4-(dimethylamino)cyclohexyl)-2,4-dimethyl-N-((6-methyl-4-(methylthio)-2-oxo-1,2-dihydropyridin-3-yl)methyl)-7-(2-(piperidin-1-yl)pyrimidin-5-yl)benzo[d][1,3]dioxole-5-carboxamide] was tested. Which IC50 did it give?
Its IC50 is ≤ 10 nM.

CSc1cc(C)[nH]c(=O)c1CNC(=O)c1cc(-c2c(C)noc2C)c2c(c1C)OC(C)([C@H]1CC[C@H](N(C)C)CC1)O2 (stereo partly drawn) [Compound 13, 2-(trans-4-(dimethylamino)cyclohexyl)-7-(3,5-dimethylisoxazol-4-yl)-2,4-dimethyl-N-((6-methyl-4-(methylthio)-2-oxo-1,2-dihydropyridin-3-yl)methyl)benzo[d][1,3]dioxole-5-carboxamide] was tested. Which IC50 did it give?
The IC50 was ≤ 10 nM.

CCN(C)c1ncc(-c2cc(C(=O)NCc3c(SC)cc(C)[nH]c3=O)c(C)c3c2OC(C)(C2CCN(CC(F)(F)F)CC2)O3)cn1 (stereo not shown) [Compound 78] was tested. Which IC50 did it give?
The IC50 was ≤ 10 nM.

CSc1cc(C)[nH]c(=O)c1CNC(=O)c1cc(-c2ccc(N3CCCCC3)cc2)c2c(c1C)OC(C)(C1CCN(CC(F)(F)F)CC1)O2 (stereo not shown) [Compound 90, 2,4-dimethyl-N-((6-methyl-4-(methylthio)-2-oxo-1,2-dihydropyridin-3-yl)methyl)-7-(4-(piperidin-1-yl)phenyl)-2-(1-(2,2,2-trifluoroethyl)piperidin-4-yl)benzo[d][1,3]dioxole-5-carboxamide] was tested. Which IC50 did it give?
The IC50 was 10 to 100 nM.

Which IC50 does the source give for CSc1cc(C)[nH]c(=O)c1CNC(=O)c1cc(-c2cnc(N3CCCC3)nc2)c2c(c1C)OC(C)([C@H]1CC[C@H](N(C)C)CC1)O2 (stereo partly drawn) [Compound 5, 2-(trans-4-(dimethylamino)cyclohexyl)-2,4-dimethyl-N-((6-methyl-4-(methylthio)-2-oxo-1,2-dihydropyridin-3-yl)methyl)-7-(2-(pyrrolidin-1-yl)pyrimidin-5-yl)benzo[d][1,3]dioxole-5-carboxamide] here?
The IC50 was ≤ 10 nM.

Which IC50 does the source give for CSc1cc(C)[nH]c(=O)c1CNC(=O)c1cc(-c2ccc3occc3c2)c2c(c1C)OC(C)(C1CCN(CC(F)F)CC1)O2 (stereo not shown) [Compound 97, 7-(benzofuran-5-yl)-2-(1-(2,2-difluoroethyl)piperidin-4-yl)-2,4-dimethyl-N-((6-methyl-4-(methylthio)-2-oxo-1,2-dihydropyridin-3-yl)methyl)benzo[d][1,3]dioxole-5-carboxamide] here?
Its IC50 is ≥ 100 nM.

CSc1cc(C)[nH]c(=O)c1CNC(=O)c1cc(-c2ccc(F)cc2)c2c(c1C)OC(C)([C@H]1CC[C@H](N(C)C)CC1)O2 (stereo partly drawn) [Compound 10, 2-(trans-4-(dimethylamino)cyclohexyl)-7-(4-fluorophenyl)-2,4-dimethyl-N-((6-methyl-4-(methylthio)-2-oxo-1,2-dihydropyridin-3-yl)methyl)benzo[d][1,3]dioxole-5-carboxamide] was tested. Which IC50 did it give?
Its IC50 is ≤ 10 nM.

With CSc1cc(C)[nH]c(=O)c1CNC(=O)c1cc(-c2ccc(N3C[C@@H](C)O[C@@H](C)C3)nc2)c2c(c1C)OC(C)([C@H]1CC[C@H](N(C)C3CCCCC3)CC1)O2 (stereo partly drawn) [Compound 114, 2-(trans-4-(cyclohexyl(methyl)amino)cyclohexyl)-7-(6-((2S,6R)-2,6-dimethylmorpholino)pyridin-3-yl)-2,4-dimethyl-N-((6-methyl-4-(methylthio)-2-oxo-1,2-dihydropyridin-3-yl)methyl)benzo[d][1,3]dioxole-5-carboxamide] as the compound, how does the IC50 read?
The IC50 was ≤ 10 nM.

Which IC50 does the source give for CSc1cc(C)[nH]c(=O)c1CNC(=O)c1cc(-c2ccc3occc3c2)c2c(c1C)OC(C)(C1CCN(CC(F)(F)F)CC1)O2 (stereo not shown) [Compound 96, 7-(benzofuran-5-yl)-2,4-dimethyl-N-((6-methyl-4-(methylthio)-2-oxo-1,2-dihydropyridin-3-yl)methyl)-2-(1-(2,2,2-trifluoroethyl)piperidin-4-yl)benzo[d][1,3]dioxole-5-carboxamide] here?
Its IC50 is ≥ 100 nM.

Which IC50 does the source give for CSc1cc(C)[nH]c(=O)c1CNC(=O)c1cc(-c2cnc(N3CCC4(CC3)COC4)nc2)c2c(c1C)OC(C)([C@H]1CC[C@H](N(C)C)CC1)O2 (stereo partly drawn) [Compound 15, 7-(2-(2-oxa-7-azaspiro[3.5]nonan-7-yl)pyrimidin-5-yl)-2-(trans-4-(dimethylamino)cyclohexyl)-2,4-dimethyl-N-((6-methyl-4-(methylthio)-2-oxo-1,2-dihydropyridin-3-yl)methyl)benzo[d][1,3]dioxole-5-carboxamide] here?
The IC50 was ≤ 10 nM.

How did the IC50 turn out when CSc1cc(C)[nH]c(=O)c1CNC(=O)c1cc(-c2ccc(N3CCOCC3)nc2)c2c(c1C)OC(C)(C1CCN(CC(F)(F)F)CC1)O2 (stereo not shown) [Compound 61, 2,4-dimethyl-N-((6-methyl-4-(methylthio)-2-oxo-1,2-dihydropyridin-3-yl)methyl)-7-(6-morpholinopyridin-3-yl)-2-(1-(2,2,2-trifluoro)piperidin-4-yl)benzo[d][1,3]dioxole-5-carboxamide] was run?
Its IC50 is ≤ 10 nM.

CSc1cc(C)[nH]c(=O)c1CNC(=O)c1cc(-c2ccc(N3C[C@@H](C)O[C@@H](C)C3)nc2)c2c(c1C)OC(C)([C@H]1CC[C@H](N(C)CC(F)F)CC1)O2 (stereo partly shown) [Compound 109] was tested. Which IC50 did it give?
Its IC50 is ≤ 10 nM.

For CSc1cc(C)[nH]c(=O)c1CNC(=O)c1cc(-c2ccc(CN3CCOCC3)cc2)c2c(c1C)OC(C)([C@H]1CC[C@H](N(C)C)CC1)O2 (stereo partly drawn) [Compound 6, 2-(trans-4-(dimethylamino)cyclohexyl)-2,4-dimethyl-N-((6-methyl-4-(methylthio)-2-oxo-1,2-dihydropyridin-3-yl)methyl)-7-(4-(morpholinomethyl)phenyl)benzo[d][1,3]dioxole-5-carboxamide], which IC50 is on record?
The IC50 was ≤ 10 nM.

With CSc1cc(C)[nH]c(=O)c1CNC(=O)c1cc(-c2ccc(N3C[C@@H](C)O[C@@H](C)C3)nc2)c2c(c1C)OC(C)([C@H]1CC[C@H](N)CC1)O2 (stereo partly drawn) [Compound 100, 2-(trans-4-aminocyclohexyl)-7-(6-((2S,6R)-2,6-dimethylmorpholino)pyridin-3-yl)-2,4-dimethyl-N-((6-methyl-4-(methylthio)-2-oxo-1,2-dihydropyridin-3-yl)methyl)benzo[d][1,3]dioxole-5-carboxamide hydrochloride salt] as the compound, how does the IC50 read?
The IC50 was ≤ 10 nM.

With CSc1cc(C)[nH]c(=O)c1CNC(=O)c1cc(-c2ccc(N3C[C@@H](C)O[C@@H](C)C3)nc2)c2c(c1C)OC(C)(C1CCN(CC(F)F)CC1)O2 (stereo partly drawn) [Compound 46, 2-(1-(2,2-difluoroethyl)piperidin-4-yl)-7-(6-((2S,6R)-2,6-dimethylmorpholino)pyridin-3-yl)-2,4-dimethyl-N-((6-methyl-4-(methylthio)-2-oxo-1,2-dihydropyridin-3-yl)methyl)benzo[d][1,3]dioxole-5-carboxamide] as the compound, how does the IC50 read?
The IC50 was ≤ 10 nM.

Which IC50 does the source give for CSc1cc(C)[nH]c(=O)c1CNC(=O)c1cc(-c2ccc(N3C[C@@H](C)O[C@@H](C)C3)nc2)c2c(c1C)OC(C)([C@H]1CC[C@H](N3CC(OCC(F)(F)F)C3)CC1)O2 (stereo partly shown) [Compound 102] here?
The IC50 was 10 to 100 nM.
